According to US5811462A, “HIV Protease inhibitors useful for the treatment of AIDS” (Merck & Co., Inc., priority 1997, dated 1998):

Target: T1, HIV Protease (Human immunodeficiency virus type 1 group M subtype B, UniProt P04585)
T1 construct: the protease expressed in Eschericia coli; made in house; host or cells: Escherichia coli
Experiment: Inhibition of microbial expressed HIV protease (peptide substrate cleavage, HPLC of products)
Format: biochemical
Settings: protease expressed in Eschericia coli, pH 5.5, 30° C., 1 hour
Description: Assay for Inhibition of Microbial Expressed HIV Protease
Inhibition studies of the reaction of the protease expressed in Eschericia coli with a peptide substrate [Val-Ser-Gln-Asn-(betanapthyl)Ala-Pro-Ile-Val, 0.5 mg/mL at the time the reaction is initiated] were in 50 mM Na acetate, pH 5.5, at 30° C. for 1 hour. Various concentrations of inhibitor in 1.0 μl DMSO were added to 25 μl of the peptide solution in water. The reaction is initiated by the addition of 15 μl of 0.33 nM protease (0.11 ng) in a solution of 0.133M Na acetate pH 5.5 and 0.1% bovine serum albumin. The reaction was quenched with 160 μl of 5% phosphoric acid. Products of the reaction were separated by HPLC (VYDAC wide pore 5 cm C-18 reverse phase, acetonitrile gradient, 0.1% phosphoric acid). The extent of inhibition of the reaction was determined from the peak heights of the products.

| IC50 | SMILES |
| --- | --- |
| 0.055 nM | O=C(N[C@H]1c2ccccc2C[C@H]1O)[C@H](Cc1ccccc1)C[C@H](O)CNC(=O)[C@H]1[C@H](C(=O)NCCc2ccccc2)[C@@H]2C=C[C@H]1C2 [A] |
| 82.8 nM | CC(C)(C)NC(=O)[C@H]1[C@H](C(=O)NC[C@@H](O)C[C@@H](Cc2ccccc2)C(=O)N[C@H]2c3ccccc3C[C@H]2O)[C@H]2C=C[C@@H]1C2 [B] |
| 0.025 nM | O=C(N[C@H]1c2ccccc2C[C@H]1O)[C@H](Cc1ccccc1)C[C@H](O)CNC(=O)[C@H]1[C@H](C(=O)N(Cc2ccccc2)Cc2ccccc2)[C@@H]2C=C[C@H]1C2 [C] |
